# Test results published in PMC10808720 (Frontiers in Pharmacology, 2024).
# Entries after “also recorded” stand apart in the source; their conditions may differ. Where two headings read alike, the source gives them in different places.
# How the values were obtained:
# [1] = Cytotoxicity assay (AlamarBlue); format: cell-based, Human; conditions: human, A549 cells; for CC50: 48 h
# Protocol: The cytotoxicity of the molecules was analyzed using the commercial kit AlamarBlue® (Invitrogen, Ref. DAL1025) according to the manufacturer’s instructions. Briefly, A549 cells were seeded at a density of 5 × 10^3 cells per well in 96-well plates, and decreasing serial dilutions of each molecule were diluted in 100 μL of DMEM starting at 200 μM. The cells were then incubated at 37°C for 48 h following the manufacturer’s protocol. The cytotoxic concentration 50% (CC50) value was obtained using the statistical software GraphPad Prism 6. The assay was performed in duplicate.
# p53/MDM2 complex = format: cell-based, Human; conditions: HAdV5-infected A549 cells, 24 h; for concentration of p53/MDM2 complexes, high vs low cell density: 10-fold IC50
# Protocol: A549 cells were seeded at a density of 1.5 × 10^5 cells per well in a 24-well plate at a high density and 3.75 × 10^4 cells per well at a low density. […] The culture medium was then aspirated and washed with 1X with cold PBS. Later, 200 μL RIPA Lysis Buffer (1% v/v NP-40, 20 mM Tris-HCL pH 7.4, 5 mM Sodium Pyrophosphate, 5 mM EDTA) with freshly added proteinase inhibitor cocktail (Thermo Fisher Scientific) was added to each well and swirled to distribute it evenly. Cells were then scraped and collected to incubate them for 30 min on ice and finally centrifuged at 13,000 × g for 5 min at 4°C. […] This assay was performed in triplicate.
# HAdV5-RFP = test: Anti-HAdV activity after knockdown of RPS14 by siRNA (RFP expression); format: cell-based, human adenovirus (HAdV5); conditions: RPS14 knockdown 293β5 cells; 10-fold IC50; 48 h
# Protocol: An siRNA approach was used to evaluate the antiviral activity of these molecules in the absence of RPS14. According to the supplier’s protocol (Effectene Transfection Reagent, QIAGEN, Valencia, CA), 293β5 cells at 1.5 × 10^4 cells/well were seeded in a clear bottom 96-well microplate a day before transfection. On the day of transfection, 0.1 µg siRNA (MISSION esiRNA RPS14, SigmaAldrich) was diluted in EC buffer up to 30 µL/well and 0.8 µL/well of the enhancer was added and the mix was incubated for 5 min. Effectene transfection reagent was added and the mix was incubated for 10 min to allow transfection complex formation. The cell layers were washed with 1x PBS and transfection complexes were poured over them. After 6 h of incubation, the transfection complexes were removed and the cells were infected with HAdV5-RFP (MOI 2,000 viral particles/cell) in the presence of a 10-fold IC50 concentration of the compounds obtained in the plaque assay or the same volume of DMSO. Standard infection was induced in the presence of the same concentrations of the compounds (performed in triplicate), and a control without siRNA. Cells, viruses, and compounds were incubated for 48 h at 37°C and 5% CO2. Infection, as measured by HAdV5-mediated RFP expression, was analyzed using a Typhoon 9410 imager (GE Healthcare Life Sciences) and quantified using ImageQuantTL (GE Healthcare Life Sciences).
# HAdV5-GFP = test: microbe, parasite or virus in culture; format: cell-based, human adenovirus (HAdV5); conditions: for Selectivity index: CC50 (A549) vs IC50 plaque assay (HAdV5)
# Protocol: Compounds were tested using low MOI infections (0.06 vp/cell), initially at concentrations of 10 μM and subsequently in a dose-response assay ranging from 10 μM to 2.44 nM in a plaque assay. Briefly, 293β5 cells were seeded in 6-well plates at a density of 1 × 10^6 cells per well in duplicate for each condition. When the cells reached 80%–90% confluency, they were infected with HAdV5-GFP and rocked for 2 h at 37°C. After the incubation, the inoculum was removed and the cells were washed once with PBS. Cells were then carefully overlaid with equal parts of 4 mL/well 1.6% ([…]) Difco Agar Noble (Becton, Dickinson & Co., Sparks, MD, USA) and 2× Eagle’s Minimum Essential Medium (EMEM; BioWhittaker) supplemented with 2×penicillin/streptomycin, 2× L-glutamine, and 10% FBS. The mixture also contained the compounds in the concentration ranges described above. Following incubation for 7 days at 37°C, plates were scanned with a Typhoon FLA 9000 imager (GE Healthcare Life Sciences) and the formed plaques were quantified with ImageJ ([Schneider et al., 2012]). Plaque counting was performed to calculate the 50% inhibitory concentration (IC50) of each compound using the statistical software GraphPad Prism 6.
# HCMV = test: Impact on HCMV replication (qPCR of HCMV DNA in HFF); format: cell-based, human cytomegalovirus; conditions: 2-fold IC50 (HAdV plaque assay), 72 h
# Protocol: To test the anti-HCMV activity of these rotenolone-related compounds, human foreskin fibroblasts (HFF; ATCC, Manassas, VA) were seeded in a 24-well plate (8.3 × 10^4 cells/well), infected with HCMV (MOI 0.05 vp/cell), and incubated in complete DMEM in the presence of either 2-fold IC50 concentration of each compound obtained in the plaque assay against HAdV or the same volume of DMSO (positive control) in duplicate. The cells were incubated for 72 h at 37°C and 5% CO2 and HCMV DNA was purified from the cell lysate using E.Z.N.A Tissue DNA Kit (Omega Biotek, Norcross, GA, USA) following the manufacturer’s instructions. The qPCR primers, conditions, and protocols were the same as previously reported ([Mazzotta et al., 2020b]).
# wild-type HAdV5 [2] = test: HAdV yield reduction (burst) assay, TCID50 end-point dilution; format: cell-based, human adenovirus (HAdV5); conditions: 10-fold IC50 concentration, TCID50/ml compound vs. DMSO, A549 cells, 48 h, MOI 100 vp/cell
# Protocol: A549 cells (1.5 × 10^5 cells/well in a 24-well plate) were incubated 24 h in 500 μL of complete DMEM and they were infected with wild-type HAdV5 (MOI 100 vp/cell) when more than 90% of confluency was observed. Infected cells were incubated for 48 h at 37°C in 500 μL of either complete DMEM containing 10-fold IC50 concentration of compounds obtained in the plaque assay or the same volume of DMSO (positive control). After 48 h, the cells were harvested and subjected to three rounds of freeze/thaw. Serial dilutions of the clarified lysates were titrated against A549 cells (3 × 10^4 cells/well in a 96-well plate) and TCID50 values were calculated using an end-point dilution method ([Reed and Muench, 1938]).
# wild-type HAdV5 [3] = test: HAdV DNA quantification by qPCR; format: cell-based, human adenovirus (HAdV5); conditions: 10-fold IC50; A549; 24 h; vs DMSO control
# Protocol: For DNA quantification, A549 cells (1.5 × 10^5 cells/well in a 24-well plate) were incubated for 24 h in 500 μL of complete DMEM and were infected with wild-type HAdV5 (MOI 100 vp/cell) after observing more than 90% of confluency. Infected cells were incubated for 24 h at 37°C in 500 μL of either complete DMEM containing 10-fold IC50 concentration of the compounds obtained in the plaque assay or the same volume of DMSO (positive control). All samples were prepared in duplicate. After 24 h of incubation at 37°C, DNA was purified from the cell lysate with the E.Z.N.A.® Tissue DNA Kit (Omega Bio-tek, Norcross, GA) following the manufacturer’s instructions. PCR conditions, primers, and probes were as described by [Henke-Gendo et al. (2012)]. Human glyceraldehyde-3-phosphate dehydrogenase (GAPDH) gene was used as an internal control. GAPDH oligonucleotide sequences and conditions were as previously described by [Rivera et al. (2004)].
# For quantification, gene fragments from hexons, and GAPDH were cloned into the pGEM-T Easy vector (Promega) and known concentrations of the template were used to generate a standard curve in parallel for each experiment, as previously reported ([Sanchez-Cespedes et al., 2016]). All assays were performed in thermal cycler LightCycler® 96 System (Roche).
# [4] = Human adenovirus sp., 168 h, read-out: IC50 plaque assay
Compound,CC50 [1] [µM],"concentration of p53/MDM2 complexes, high vs low cell density (p53/MDM2 complex)",concentration of p53/MDM2 complexes (p53/MDM2 complex),HAdV-mediated RFP expression when no RPS14 was available (HAdV5-RFP),IC50 (HAdV5-GFP; Human adenovirus sp.) [µM],CC50 at 48 h [1] [µM],inhibition of HCMV replication (HCMV),Virus Yield Fold-reduction (wild-type HAdV5 [2]) [fold],Selectivity index (HAdV5-GFP),IC50 (HAdV5-GFP; [4]) [µM],HAdV DNA copy number (de novo synthesis) (wild-type HAdV5 [3]),Virus Yield Fold-reduction (wild-type HAdV5 [2]; listed as deguelin) [fold],increase of HCMV replication compared with the control treated with DMSO (HCMV),"inhibition at 10 µM (HAdV5-GFP; Human adenovirus sp., read-out: inhibition of plaque formation) [%]"
"CC[C@H]1CN2CCc3cc(OC)c(OC)cc3[C@@H]2C[C@@H]1C[C@H]1NCCc2cc(OC)c(OC)cc21 [emetine, reference compound]",6.17 ± 0.04,"no differences based on the cell density; also recorded: non among emetine, rotenone, deguelin and tephrosin alter the concentrations",dramatically reduced,reduced,0.085 ± 0.019,–,–,–,–,–,–,–,–,–
"COc1cc2c(cc1OC)[C@]1(O)C(=O)c3ccc4c(c3O[C@@H]1CO2)C=CC(C)(C)O4 [Tephrosin, hydroxydeguelin]",–,"non among emetine, rotenone, deguelin and tephrosin alter the concentrations",–,–,–,37.7 ± 0.6,83.4%,2.7E+03 ± 987.3,538.9,0.07 ± 0.03,–,–,–,–
"COc1cc2c(cc1OC)[C@@H]1C(=O)c3ccc4c(c3O[C@@H]1CO2)C=CC(C)(C)O4 [Deguelin, (7aS,13aS)-13,13a-Dihydro-9,10-dimethoxy-3,3-dimethyl-3H-bis ([Mennechet et al., 2019])benzopyrano[3,4-b:6′,5′-e]pyran-7-(7aH)-one]",97.2 ± 0.1,"non among emetine, rotenone, deguelin and tephrosin alter the concentrations",–,–,–,–,50%,2.7E+02 ± 19.4,"2,429.3",0.04 ± 0.01,significant decrease,270,–,–
CC1(C)C=Cc2c(ccc3c2O[C@@H]2COc4cc5c(cc4[C@@H]2C3=O)OCO5)O1 [Millettone],109 ± 2.2,–,–,–,–,–,did not inhibit,–,23.8,4.6 ± 0.54,–,–,more than 10 times,> 98
